Values of other authors, collected in patent US20220273701A1, “TREATMENT FOR REDUCING ADVERSE EVENTS INCLUDING CHEMOTHERAPY DISCOMFORT AND OTHER CONDITIONS” (priority 2019, published 2022).

Compound | pKa of Acid (or pH of 1:1 mixture)
C[C@H](N)C(=O)O [Alanine/Alanine anion, Alanine] | 9.69
N[C@@H](CS)C(=O)O [Cysteine/Cysteine anion, Cysteine] | 10.78
NCC(=O)O [Glycine/Glycine anion, Glycine] | 9.60
CC[C@H](C)[C@H](N)C(=O)O [Isoleucine/Isoleucine anion, Isoleucine] | 9.60
O=S(=O)(O)CCNC1CCCCC1 [N-Cyclohexyl-2-aminoethanesulfonic acid] | 9.3
O=S(=O)(O)CCCNC1CCCCC1 [N-cyclohexyl-3-aminopropanesulfonic acid] | 10.4
O=C(O)[C@@H]1CCCN1 [Proline/Proline anion, Proline] | 10.60
CC(C)[C@H](N)C(=O)O [Valine/Valine anion, Valine] | 9.62
O=S(=O)(O)CCCNC(CO)(CO)CO [tris(hydroxymethyl)methylamino]propanesulfonic acid] | 8.55
Arginine anion [Arginine anion/Arginine dianion] | 12.48
Boric Acid [Boric Acid/Borate] | 9.0
Lysine anion [Lysine anion/Lysine dianion] | 10.79
Tris(hydroxymethyl)aminomethane | 8.2
Tyrosine anion [Tyrosine anion/Tyrosine dianion] | 10.07
